Drawing on publication PMC7915724 (2021), this text covers DC50 and KD for eight compounds.

Test [1] deals with PDGFR-β (DNA, i motif) GCGTCCACCCTCCCTGCCCCGCCGCCCCCCCTTCTCCCAGC
The test is described as follows: TO displacement, fluorescence. The following applies: 100 mM KCl (annealing buffer); 1 μM DNA, 2 μM thiazole orange displaced; b21 gives lower bound of range as 8.01.

For test [2], the system named is biotin-Pu24 (VEGF G-quadruplex) (DNA, G4) CCGGGGCGGGCCGGGGGCGGGGTC
The test is described as follows: SPR. Particulars: 100 mM KCl; 20 mM Tris-HCl pH 7.4, 25 °C; tested up to 50 μM.

The subject of test [3] is FPu24 (DNA, G4) CCGGGGCGGGCCGGGGGCGGGGTC
The test is described as follows: MST. The following applies: 100 mM KCl (annealing buffer); 1 μM DNA; assay pH not stated.

The subject of test [4] is biotin-Hairpin (duplex DNA) (DNA, hairpin, HEG linker between nucleotides 10 and 11 (joins the two TATAGCTATA halves)) TATAGCTATATATAGCTATA
The experiment in a line: SPR. Particulars: 100 mM KCl; 20 mM Tris-HCl pH 7.4, 25 °C; tested up to 50 μM.

The test system of test [5] is BCL2 (DNA, i motif) CAGCCCCGCTCCCGCCCCCTTCCTCCCGCGCCCGCCCCT
The test is described as follows: TO displacement, fluorescence. The following applies: 100 mM KCl (annealing buffer); 1 μM DNA, 2 μM thiazole orange displaced; assay pH not stated.

The test system of test [6] is biotin-Py24 (VEGF i-motif) (DNA, i motif) GACCCCGCCCCCGGCCCGCCCCGG
The experiment in a line: SPR. Particulars: 100 mM KCl, 20 mM MES pH 5.5, 0.05% Tween-20, 25 °C.

Test [7] deals with FPDGFR-β (DNA, i motif) GCGTCCACCCTCCCTGCCCCGCCGCCCCCCCTTCTCCCAGC
The experiment in a line: MST. Particulars: 100 mM KCl (annealing buffer); 1 μM DNA; assay pH not stated.

Test [8] deals with FPy24 (DNA, i motif) GACCCCGCCCCCGGCCCGCCCCGG
The experiment in a line: MST. The following applies: 100 mM KCl (annealing buffer); 1 μM DNA; assay pH not stated.

The subject of test [9] is Py24 (VEGF i-motif) (DNA, i motif) GACCCCGCCCCCGGCCCGCCCCGG
The experiment in a line: ITC. Particulars: 100 mM KCl, 30 mM KH2PO4, 30 mM K2HPO4; 1× BPES (1 mM EDTA) pH 5.0, 30 °C; Py24 titrated into 3c; one-site fit.

For test [10] the test system is unchanged. The test is described as follows: TO displacement, fluorescence. The following applies: 100 mM KCl (annealing buffer); 1 μM DNA, 2 μM thiazole orange displaced; assay pH not stated.
For test [11], the system named is FKRAS (DNA, i motif) GCCCGGCCCCCGCTCCTCCCCCGCCGGCCCGGCCCGGCCCCCTCCTTCTCCCCG
The experiment in a line: MST. The following applies: 100 mM KCl (annealing buffer); 1 μM DNA; assay pH not stated.

For test [12], the system named is FHairpin (duplex DNA) (DNA, hairpin, HEG linker between nucleotides 10 and 11 (joins the two TATAGCTATA halves)) TATAGCTATATATAGCTATA
The test is described as follows: MST. The following applies: 1 μM DNA; assay buffer not stated.

The test system of test [13] is FBCL2 (DNA, i motif) CAGCCCCGCTCCCGCCCCCTTCCTCCCGCGCCCGCCCCT
The experiment in a line: MST. The following applies: 100 mM KCl (annealing buffer); 1 μM DNA; assay pH not stated.

Test [14] concerns Fc-kit (DNA, i motif) CCCCTCCCTCGCGCCCGCCCG
The experiment in a line: MST. Particulars: 100 mM KCl (annealing buffer); 1 μM DNA; assay pH not stated.

Test [15] has as its system Pu24 (VEGF G-quadruplex) (DNA, G4) CCGGGGCGGGCCGGGGGCGGGGTC
The experiment in a line: TO displacement, fluorescence. Particulars: 100 mM KCl (annealing buffer); 1 μM DNA, 2 μM thiazole orange displaced; assay pH not stated.

Test [16] deals with c-kit (DNA, i motif) CCCCTCCCTCGCGCCCGCCCG
The experiment in a line: TO displacement, fluorescence. The following applies: 100 mM KCl (annealing buffer); 1 μM DNA, 2 μM thiazole orange displaced; assay pH not stated.

In test [17] the test system is KRAS (DNA, i motif) GCCCGGCCCCCGCTCCTCCCCCGCCGGCCCGGCCCGGCCCCCTCCTTCTCCCCG
The experiment in a line: TO displacement, fluorescence. The following applies: 100 mM KCl (annealing buffer); 1 μM DNA, 2 μM thiazole orange displaced; assay pH not stated.

Test [18] deals with biotin-Hairpin (duplex DNA) (DNA, hairpin, HEG (hexaethylene glycol) linker between 10 and 11) TATAGCTATATATAGCTATA
The test is described as follows: SPR. The following applies: 100 mM KCl; 20 mM Tris-HCl pH 7.4, 25 °C; tested up to 50 μM.

The test system of test [19] is biotin-Pu24 (VEGF G-quadruplex) (DNA, G4) CCGGGGCGGGCCGGGGGCGGGGTC
The experiment in a line: SPR. Particulars: 100 mM KCl; 20 mM Tris-HCl pH 7.4, 25 °C; tested up to 50 μM. The source holds these as a separate data set.

As a reminder, the KD is a measure of binding affinity in units of concentration. The low end stands for a tighter complex, the high end for a looser complex. `CC1(C)CC[C@]2(C(=O)NCCCNCCNCCCN)CC[C@]3(C)C(=CC[C@@H]4[C@@]5(C)CC[C@H](O)C(C)(C)[C@@H]5CC[C@]43C)[C@@H]2C1`: the DC50 in [1] is 8.08 µM; in test [5], 16.1 µM; in test [10], 3.19 µM; in test [15] it was 8.29 µM; in test [16], 14.7 µM; in test [17] it was 13.1 µM. Further, the KD is greater than 50 µM in test [2]; 47.9 µM in [3]; greater than 50 µM in test [4]; 1.95 µM in test [6] (b20 prints 1.93); 14.4 µM in test [7]; 1.14 µM in test [8]. Further, the KD in [9] worked out at 1.13 µM; in [11] it was 37.8 µM; in test [12], 91.4 µM; in test [13] it was 95.1 µM; in test [14], 43.3 µM.

On to `Cc1cn(CC(=O)NCCCNCCNCCCNC(=O)[C@]23CCC(C)(C)C[C@H]2C2=CC[C@@H]4[C@@]5(C)CC[C@H](O)C(C)(C)[C@@H]5CC[C@@]4(C)[C@]2(C)CC3)c(=O)[nH]c1=O`, for which the dissociation constant KD is greater than 50 µM in test [2], greater than 50 µM in test [4] and 5.01 µM in test [6].

`CC1(C)CC[C@]2(C(=O)NCCNC(=O)/C=C/c3ccc(O)c(O)c3)CC[C@]3(C)C(=CC[C@@H]4[C@@]5(C)CC[C@H](O)C(C)(C)[C@@H]5CC[C@]43C)[C@@H]2C1`: the results for the KD in test [2], in [4] and in test [6] were greater than 50 µM, greater than 50 µM and 3.09 µM, respectively.

Regarding `COc1ccc(C(=O)NCCNC(=O)[C@]23CCC(C)(C)C[C@H]2C2=CC[C@@H]4[C@@]5(C)CC[C@H](O)C(C)(C)[C@@H]5CC[C@@]4(C)[C@]2(C)CC3)c(OC)c1`, the KD in test [6] (tested up to 50 μM), in [18] and in test [19] was greater than 50 µM each time.

In the case of `CC1(C)CC[C@]2(C(=O)NCCNS(=O)(=O)N3CCOCC3)CC[C@]3(C)C(=CC[C@@H]4[C@@]5(C)CC[C@H](O)C(C)(C)[C@@H]5CC[C@]43C)[C@@H]2C1`, the results for the KD in test [6], in test [18] and in test [19] were 13.8 µM, greater than 50 µM and greater than 50 µM, respectively.

As for `CC1(C)CC[C@]2(C(=O)NCc3cn(CCC#N)nn3)CC[C@]3(C)C(=CC[C@@H]4[C@@]5(C)CC[C@H](O)C(C)(C)[C@@H]5CC[C@]43C)[C@@H]2C1`, the KD was 19.3 µM in test [6], greater than 50 µM in [18] and greater than 50 µM in test [19].

For `COC(=O)[C@]12CCC(C)(C)C[C@H]1[C@H]1C(=O)C[C@@H]3[C@@](C)(CCC(=O)NCCCN(C)C)[C@H](C(C)(C)O)CC[C@@]3(C)[C@]1(C)CC2`, the KD in [6] (tested up to 50 μM), in test [18] and in [19] was greater than 50 µM throughout.

Regarding `CCOC(=O)Cn1cc(CNC(=O)[C@]23CCC(C)(C)C[C@H]2C2=CC[C@@H]4[C@@]5(C)CC[C@H](O)C(C)(C)[C@@H]5CC[C@@]4(C)[C@]2(C)CC3)nn1`, the KD in [6] (tested up to 50 μM), in test [18] and in [19] was greater than 50 µM in each case.
